Reference: ChEMBL document CHEMBL5338758, “Design, Synthesis, and Bioevaluation of Novel MyD88 Inhibitor c17 against Acute Lung Injury Derived from the Virtual Screen” (J Med Chem, 2023)
The source made the active and inactive calls. No cut-off for these calls is given here.

How the values were obtained:
[1] = Drug distribution in Sprague-Dawley rat liver at 1 mg/kg, iv measured after 2 hrs by LC-MS/MS analysis; assay type: ADME, organism-based; conditions: read-out: Drug uptake
[2] = Drug distribution in Sprague-Dawley rat lung at 1 mg/kg, iv measured after 0.5 hrs by LC-MS/MS analysis; assay type: ADME, organism-based; conditions: read-out: Drug uptake
[3] = AUC (0 to t) in Sprague-Dawley rat at 1 mg/kg, iv measured at 5 to 1440 min by LC-MS/MS analysis; assay type: ADME, organism-based; parameters: time upper 1440 min, time lower 5 min, dose 1 mg/kg, route iv; conditions: in vivo
[4] = Drug distribution in Sprague-Dawley rat spleen at 10 mg/kg, po measured after 8 hrs by LC-MS/MS analysis; assay type: ADME, organism-based; conditions: read-out: Drug uptake
[5] = Drug distribution in Sprague-Dawley rat lung at 1 mg/kg, iv measured after 4 hrs by LC-MS/MS analysis; assay type: ADME, organism-based; conditions: read-out: Drug uptake
[6] = Drug distribution in Sprague-Dawley rat liver at 1 mg/kg, iv measured after 0.5 hrs by LC-MS/MS analysis; assay type: ADME, organism-based; conditions: read-out: Drug uptake
[7] = Drug distribution in Sprague-Dawley rat lung at 10 mg/kg, po measured after 1 hrs by LC-MS/MS analysis; assay type: ADME, organism-based; conditions: read-out: Drug uptake
Mus musculus [8] = assay: Anti-inflammatory activity against LPS-induced […] mouse model of […] assessed as decrease in IL-6 level in BALF at 20 mg/kg, po pre-treated with compound for 30 mins followed by LPS stimulation and measured after 6 hrs; assay type: functional, organism-based; conditions: time 6.5 hrs
J774.A1 [9] = assay: Inhibition of NF-kappaB pathway in LPS-induced mouse J774.A1 cells assessed as […] in IkappaB-alpha phosphorylation at 10 to 40 uM preincubated with compound for 2 hrs followed by LPS-stimulation and measured after 15 mins by Western blot analysis; assay type: cell-based; conditions: dose 10-40 µM, time 135.0 min
[10] = Toxicity in ICR mouse assessed as mortality at 20 to 400 mg/kg, po measured upto 21 days; assay type: organism-based; conditions: in vivo, 504 h, dose 20-400 mg/kg, time < 21 day
[11] = Stability of compound in rat serum at 32 degreeC measured every 2 hrs for 24 hrs by HPLC analysis; assay type: ADME, cell-free
[12] = biological target: TLR4-MyD88 (Mus musculus) (UniProt Q9QUK6+P22366); assay: Inhibition of MyD88/TLR4 interaction in LPS-stimulated mouse J774.A1 cells at 40 to 80 uM preincubated with compound for 2 hrs followed by LPS stimulation by co-immunoprecipitation analysis; assay type: cell-based; conditions: dose 40-80 µM
[13] = Drug distribution in Sprague-Dawley rat brain at 10 mg/kg, po measured after 8 hrs by LC-MS/MS analysis; assay type: ADME, organism-based; conditions: read-out: Drug uptake
[14] = biological target: Myeloid differentiation primary response protein MyD88 (Homo sapiens, UniProt Q99836); assay: Binding affinity to human MyD88 TIR domain assessed as equilibrium dissociation constant by SPR analysis
[15] = Drug distribution in Sprague-Dawley rat kidney at 10 mg/kg, po measured after 1 hrs by LC-MS/MS analysis; assay type: ADME, organism-based; conditions: read-out: Drug uptake
[16] = Stability of compound in rat serum at 25 degreeC measured every 2 hrs for 24 hrs by HPLC analysis; assay type: ADME, cell-free
[17] = Half-life in Sprague-Dawley rat at 10 mg/kg, po measured at 15 to 1440 min by LC-MS/MS analysis; assay type: ADME, organism-based; conditions: in vivo, time 15-1440 min
[18] = Drug distribution in Sprague-Dawley rat spleen at 1 mg/kg, iv measured after 4 hrs by LC-MS/MS analysis; assay type: ADME, organism-based; conditions: read-out: Drug uptake
Mus musculus [19] = assay: Anti-inflammatory activity against LPS-induced […] mouse model of […] assessed as decrease in TNF-alpha mRNA level in lung at 20 mg/kg, po pre-treated with compound for 30 mins followed by LPS stimulation and measured after 6 hrs by qRT-PCR analysis; assay type: functional, organism-based; conditions: time 6.5 hrs
J774.A1 [20] = assay: Inhibition of NF-kappaB pathway in LPS-induced mouse J774.A1 cells assessed as decrease in p65 nuclear translocation preincubated with compound for 2 hrs followed by LPS-stimulation and measured after 15 mins by Western blot analysis; assay type: cell-based; conditions: dose 10-40 µM, time 135.0 min
[21] = Drug distribution in Sprague-Dawley rat lung at 1 mg/kg, iv measured after 2 hrs by LC-MS/MS analysis; assay type: ADME, organism-based; conditions: read-out: Drug uptake
Mus musculus [22] = assay: (§1) Anti-inflammatory activity against LPS-induced […] mouse model of […] assessed as alleviation of tissue destruction in lung at 20 mg/kg, po pre-treated with compound for 30 mins followed by LPS stimulation and measured after 6 hrs by H&E staining based histopathological analysis; assay type: functional, organism-based; conditions: time 6.5 hrs
[23] = Drug distribution in Sprague-Dawley rat spleen at 1 mg/kg, iv measured after 0.5 hrs by LC-MS/MS analysis; assay type: ADME, organism-based; conditions: read-out: Drug uptake
[24] = Drug distribution in Sprague-Dawley rat heart at 1 mg/kg, iv measured after 2 hrs by LC-MS/MS analysis; assay type: ADME, organism-based; conditions: read-out: Drug uptake
[25] = Drug distribution in Sprague-Dawley rat liver at 10 mg/kg, po measured after 3 hrs by LC-MS/MS analysis; assay type: ADME, organism-based; conditions: read-out: Drug uptake
Mus musculus [26] = assay: Anti-inflammatory activity against LPS-induced […] mouse model of […] assessed as decrease in TNF-alpha level in BALF at 20 mg/kg, po pre-treated with compound for 30 mins followed by LPS stimulation and measured after 6 hrs; assay type: functional, organism-based; conditions: time 6.5 hrs
[27] = AUC (0 to t) in Sprague-Dawley rat at 10 mg/kg, po measured at 15 to 1440 min by LC-MS/MS analysis; assay type: ADME, organism-based; parameters: time 15-1440 min, dose 10 mg/kg, route po; conditions: in vivo
Mus musculus [28] = assay: as §1, with “inflammatory infiltration” for “tissue destruction”; assay type: functional, organism-based; conditions: time 6.5 hrs
[29] = Oral bioavailability in Sprague-Dawley rat at 10 mg/kg measured at 15 to 1440 min by LC-MS/MS analysis; assay type: ADME, organism-based; conditions: in vivo, time 15-1440 min
[30] = Drug distribution in Sprague-Dawley rat spleen at 1 mg/kg, iv measured after 2 hrs by LC-MS/MS analysis; assay type: ADME, organism-based; conditions: read-out: Drug uptake
J774.A1 [31] = assay: Anti-inflammatory activity in mouse J774.A1 cells assessed as inhibition of LPS-induced TNF-alpha production pre-stimulated with LPS for 24 hrs followed by compound addition and measured after 0.5 hrs by ELISA analysis; assay type: functional, cell-based
[32] = Drug distribution in Sprague-Dawley rat kidney at 1 mg/kg, iv measured after 0.5 hrs by LC-MS/MS analysis; assay type: ADME, organism-based; conditions: read-out: Drug uptake
[33] = Toxicity in ICR mouse assessed as effect on body weight change at 20 to 400 mg/kg, po measured upto 21 days; assay type: organism-based; conditions: in vivo, 504 h, dose 20-400 mg/kg, time < 21 day
[34] = Tmax in Sprague-Dawley rat at 10 mg/kg, po measured at 15 to 1440 min by LC-MS/MS analysis; assay type: ADME, organism-based; conditions: in vivo, time 15-1440 min
[35] = Drug distribution in Sprague-Dawley rat kidney at 1 mg/kg, iv measured after 4 hrs by LC-MS/MS analysis; assay type: ADME, organism-based; conditions: read-out: Drug uptake
[36] = Cmax in Sprague-Dawley rat at 1 mg/kg, iv measured at 5 to 1440 min by LC-MS/MS analysis; assay type: ADME, organism-based; parameters: time upper 1440 min, dose 1 mg/kg, time lower 5 min, route iv; conditions: in vivo
Mus musculus [37] = assay: Anti-inflammatory activity against LPS-induced […] mouse model of […] assessed as alleviation of lung edema by measuring decrease in total lung protein level at 20 mg/kg, po pre-treated with compound for 30 mins followed by LPS stimulation and measured after 6 hrs; assay type: functional, organism-based; conditions: time 6.5 hrs

Sequence of Myeloid differentiation primary response protein MyD88 (Q99836 whole entry, the tested form may be a part): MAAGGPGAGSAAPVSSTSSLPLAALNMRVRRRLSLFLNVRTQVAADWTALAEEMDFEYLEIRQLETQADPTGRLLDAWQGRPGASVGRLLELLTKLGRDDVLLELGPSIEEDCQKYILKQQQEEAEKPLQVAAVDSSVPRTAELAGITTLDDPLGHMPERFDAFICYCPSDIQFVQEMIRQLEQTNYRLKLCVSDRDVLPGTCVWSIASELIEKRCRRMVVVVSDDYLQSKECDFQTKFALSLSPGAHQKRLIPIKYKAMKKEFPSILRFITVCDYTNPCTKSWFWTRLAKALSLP
Sequence of TLR4-MyD88 (Mus musculus) (P22366 whole entry, looked up): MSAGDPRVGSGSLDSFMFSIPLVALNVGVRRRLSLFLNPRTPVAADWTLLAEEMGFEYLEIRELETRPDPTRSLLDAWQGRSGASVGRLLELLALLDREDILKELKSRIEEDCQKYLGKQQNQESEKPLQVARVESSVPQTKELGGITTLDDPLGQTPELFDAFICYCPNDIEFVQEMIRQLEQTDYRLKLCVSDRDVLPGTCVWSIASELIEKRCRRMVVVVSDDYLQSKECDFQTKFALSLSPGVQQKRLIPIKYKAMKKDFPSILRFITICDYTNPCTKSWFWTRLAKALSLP
Sequence of TLR4-MyD88 (Mus musculus) (Q9QUK6 whole entry, looked up): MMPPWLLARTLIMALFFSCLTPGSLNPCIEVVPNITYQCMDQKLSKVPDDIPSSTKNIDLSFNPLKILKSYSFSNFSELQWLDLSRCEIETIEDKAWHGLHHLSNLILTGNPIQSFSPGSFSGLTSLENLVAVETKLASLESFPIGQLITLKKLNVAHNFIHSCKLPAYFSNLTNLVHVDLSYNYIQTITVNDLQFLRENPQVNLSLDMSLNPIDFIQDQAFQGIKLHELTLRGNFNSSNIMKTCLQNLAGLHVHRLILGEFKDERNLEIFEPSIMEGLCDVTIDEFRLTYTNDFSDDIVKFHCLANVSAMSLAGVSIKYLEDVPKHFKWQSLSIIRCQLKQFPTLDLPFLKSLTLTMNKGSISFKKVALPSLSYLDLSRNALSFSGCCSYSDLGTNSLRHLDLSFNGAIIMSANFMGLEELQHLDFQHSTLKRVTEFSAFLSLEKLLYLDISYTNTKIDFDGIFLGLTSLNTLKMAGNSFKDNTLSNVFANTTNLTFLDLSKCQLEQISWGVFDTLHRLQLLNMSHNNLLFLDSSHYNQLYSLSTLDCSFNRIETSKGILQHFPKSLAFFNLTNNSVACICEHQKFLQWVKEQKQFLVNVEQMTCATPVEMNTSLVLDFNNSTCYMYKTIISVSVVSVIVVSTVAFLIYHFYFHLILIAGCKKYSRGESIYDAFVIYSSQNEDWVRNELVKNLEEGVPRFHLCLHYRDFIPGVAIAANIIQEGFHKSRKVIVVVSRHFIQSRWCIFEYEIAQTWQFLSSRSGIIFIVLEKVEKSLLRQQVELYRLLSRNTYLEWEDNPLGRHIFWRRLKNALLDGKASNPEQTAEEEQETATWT

COc1ccc(NS(=O)(=O)c2ccc(N3CCN(Cc4cccc([N+](=O)[O-])c4)CC3)c([N+](=O)[O-])c2)cn1
concentration at 2 h [1]: 192 ng/g | concentration at 0.5 h [2]: 98.2 ng/g | AUCt [3]: 4795 ng·h/mL | concentration at 8 h [4]: 137 ng/g | concentration at 4 h [5]: 502 ng/g | concentration at 0.5 h [6]: 166 ng/g | concentration at 1 h [7]: 41.6 ng/g | Activity (Mus musculus [8]): Active | inhibition (J774.A1 [9]): Active | Activity [10]: Non-Toxic | Stability [11]: Stable | inhibition [12]: Active | concentration at 8 h [13]: 39.9 ng/g | Kd [14]: 53 µM | concentration at 1 h [15]: 4.15 ng/g | Stability [16]: Stable | half-life [17]: 7 h | concentration at 4 h [18]: 113 ng/g | Activity (Mus musculus [19]): Active | inhibition (J774.A1 [20]): Dose-Dependent Effect | concentration at 2 h [21]: 206 ng/g | Activity (Mus musculus [22]): Active | concentration at 0.5 h [23]: 32.2 ng/g | concentration at 2 h [24]: 118 ng/g | concentration at 3 h [25]: 287 ng/g | Activity (Mus musculus [26]): Active | AUCt [27]: 68163 ng·h/mL | Activity (Mus musculus [28]): Active | F [29]: 14.2% | concentration at 2 h [30]: 76.8 ng/g | IC50 (J774.A1 [31]): 8.17 µM | concentration at 0.5 h [32]: 52.5 ng/g | Activity [33]: Non-Toxic | Tmax [34]: 0.8 h | concentration at 4 h [35]: 250 ng/g | Cmax [36]: 2770 ng/mL | Activity (Mus musculus [37]): Active
